Several values for one entry are separate records, joined by “and”; a condition that tells them apart may be missing. Identical values can stand only once. Entries after “also recorded” stand apart in the source; their conditions may differ. Counter-ions that a name gives are not always drawn. Like-named read-outs stand apart in the source and are kept apart here.
Key:
[1] = DPPH radical scavenging (antioxidant) assay; conditions: for Percentage of inhibited DPPH (2 h): mean ± SEM
Procedure: The antioxidant capacity of the selected Se compound was tested using the DPPH assay described by Astrain-Redin. The compound was tested at three different concentrations (0.06, 0.03, and 0.015 mg/mL) and we used two positive controls: ascorbic acid (ASC) and trolox (TRO). A solution of DPPH (2,2-diphenyl-1-picrylhydrazyl) in methanol (0.04 mg/mL, preserved in the dark) was prepared and 100 μL of this stock solution was added to 100 μL of tested compound solution. The color change, from purple (radical) to yellow (reduced), was measured at 517 nm at different time points (0, 5, 15, 30, 60, 90, and 120 min). All measurements were carried out in triplicate and recorded on a BioTek PowerWave XS spectrophotometer (Biotek). Data were collected using BioTek Gen5Microplate reader and Imager software (Agilent, version 3.12). Results are expressed as a percentage of inhibited DPPH ± standard error of the mean (SEM), calculated using the following formula %inhibitedDPPH=Acontrol−Asample/Acontrol×100 where A control refers to the absorbance of the negative control and A sample refers to the absorbance of the tested compound.

[2] = molecular target: T1, Recombinant human cathepsin L (hCatL) (Homo sapiens, UniProt P07711); assay: Human cathepsin L inhibition assay (Z-FR-AMC substrate); assay type: biochemical
T1 construct: purchased R&D Systems 952-CY
T1 sequence (P07711 114-333): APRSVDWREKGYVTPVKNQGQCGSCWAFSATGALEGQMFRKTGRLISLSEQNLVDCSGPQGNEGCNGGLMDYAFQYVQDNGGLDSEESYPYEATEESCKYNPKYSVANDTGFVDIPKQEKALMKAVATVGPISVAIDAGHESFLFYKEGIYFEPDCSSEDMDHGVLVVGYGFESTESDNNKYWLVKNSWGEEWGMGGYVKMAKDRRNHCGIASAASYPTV
Procedure: Compounds were screened at 10 μM. […] The experiment was performed for 30 min.
(§1) All experiments were accomplished in a 384-well black microplate, using a Synergy HTX (Biotek) plate reader at 25 °C with absorption/emission wavelengths of 360/460 nm. All assays were performed in triplicate wells and DMSO was used as a vehicle control. Enzymatic activity was measured and normalized to DMSO controls, and the inhibitor E-64 (10 μM) was used as a positive control for all assays. All experiments were performed in triplicates, with at least two independent assays (n = 6 data points). IC50 values were determined through nonlinear regression. Obtained data were treated and analyzed using GraphPad Prism 9.0 (GraphPad Software, La Jolla, California).

recombinant Cz (cruzain) = molecular target: T2, recombinant Cz (cruzain) (Trypanosoma cruzi, UniProt P25779); assay: biochemical; conditions: for SICz: ratio between IC50 hCatL and IC50 Cz; for inhibition at 10 µM: read-out: Cz inhibition (%), 10 µM; for Cz inhibition (%): 10 µM
T2 construct: Cz was expressed and purified as described in da Silva et al; made in house
T2 sequence (P25779 123-337 limits assumed): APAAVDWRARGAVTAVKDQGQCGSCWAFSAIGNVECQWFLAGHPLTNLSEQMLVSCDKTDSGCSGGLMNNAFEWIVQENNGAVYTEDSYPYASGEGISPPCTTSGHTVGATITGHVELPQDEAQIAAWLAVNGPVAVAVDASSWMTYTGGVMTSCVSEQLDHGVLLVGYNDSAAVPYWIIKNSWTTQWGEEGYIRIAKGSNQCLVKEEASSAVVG
Procedure: The screening assay was performed using 1 nM of Cz diluted in 0.1 M sodium acetate pH 5.5, 1 mM dithiothreitol (DTT), and 0.01% Triton X-100. Cz was expressed and purified as described in da Silva et al. The reaction starts after 10 min incubating the enzyme with the compounds (10 μM), when adding 2.5 μM of the substrate Z-FR-AMC final concentration (Z-Phe-Arg-amidomethylcoumarin, Sigma-Aldrich, C9521) diluted in the same assay buffer (final volume of 30 μL). The experiment was performed for 10 min. […] The DRC was performed with at least nine different concentrations of the inhibitors, diluted by 2-fold serial dilution, ranging from […] to 10 μM.
as §1

[3] = Host cell cytotoxicity (C2C12 viability); assay type: cell-based, Mouse; conditions: mouse; for viability at 48 h, 10 µM: < 50% viability considered cytotoxic; for CC50 at 48 h: viability calculated at 10 μM
Procedure: (§2) Antiparasitic activity and cytotoxicity of compounds were determined as described before (da Silva et al., Boudreau et al.). Mouse myoblasts cell line C2C12 (ATCCCRL-1772), were maintained in high glucose (4.5 g/L glucose) Dulbecco’s modified Eagle’s medium (DMEM Gibco), supplemented with 1% penicillin–streptomycin 10,000 U/mL (Gibco) and 5% fetal bovine serum (FBS, Sigma-Aldrich) at 37 °C with 5% CO2. parasites (CAI/72 strain, DTU TcI) were maintained by weekly coinfection with C2C12 cells. For all activity assays, C2C12 cells were infected at a 10:1 parasite-to-cell ratio with culture-derived trypomastigotes, which were harvested from the supernatant of infected C2C12 cells. After adding compounds to 384-well black clear-bottom plates (Greiner cat. no. 781091), trypomastigotes (7000 parasites/well) and C2C12 cells (700 cells/well) were seeded in a total volume of 50 μL of DMEM per well in the 384-well plates. Compounds were first tested at 10 μM. […] After 48 h at 37 °C and 5% CO2, plates were fixed with 4% formaldehyde solution for at least 1 h, washed with 1× PBS, and stained with 5 μg/mL of 4′,6-diamidino-2-phenylindole (DAPI) for at least 1 h prior to reading. Plates were imaged with the automated ImageXpress MicroXL microscope (Molecular Devices) and analyzed by MetaXpress software (Molecular Devices) using a custom module optimized for this assay. Infection levels (parasites per host cell) were normalized to the positive control (40 μM BNZ) and negative control (DMSO). Antiparasitic activity (EC50) ± standard deviation (SD) and host cell cytotoxicity (C2C12 viability) values were determined from the DRC using Prism software (GraphPad Software, La Jolla, CA). Every assay has three biological replicates, each in triplicates (n = 9 data points).

T. cruzi CAI/72 strain = assay: Antiparasitic activity in C2C12 cells infected with T. cruzi CAI/72 (image-based assay); assay type: cell-based; conditions: for EC50: mean of three experiments in triplicate (n = 9) ± SD
Procedure: Antiparasitic activity and cytotoxicity of compounds were determined as described before (da Silva et al., Boudreau et al.). Mouse myoblasts cell line C2C12 (ATCCCRL-1772), were maintained in high glucose (4.5 g/L glucose) Dulbecco’s modified Eagle’s medium (DMEM Gibco), supplemented with 1% penicillin–streptomycin 10,000 U/mL (Gibco) and 5% fetal bovine serum (FBS, Sigma-Aldrich) at 37 °C with 5% CO2. parasites (CAI/72 strain, DTU TcI) were maintained by weekly coinfection with C2C12 cells. For all activity assays, C2C12 cells were infected at a 10:1 parasite-to-cell ratio with culture-derived trypomastigotes, which were harvested from the supernatant of infected C2C12 cells. After adding compounds to 384-well black clear-bottom plates (Greiner cat. no. 781091), trypomastigotes (7000 parasites/well) and C2C12 cells (700 cells/well) were seeded in a total volume of 50 μL of DMEM per well in the 384-well plates. Compounds were first tested at 10 μM. […] Plates were imaged with the automated ImageXpress MicroXL microscope (Molecular Devices) and analyzed by MetaXpress software (Molecular Devices) using a custom module optimized for this assay. Infection levels (parasites per host cell) were normalized to the positive control (40 μM BNZ) and negative control (DMSO). Antiparasitic activity (EC50) ± standard deviation (SD) and host cell cytotoxicity (C2C12 viability) values were determined from the DRC using Prism software (GraphPad Software, La Jolla, CA). Every assay has three biological replicates, each in triplicates (n = 9 data points).

[4] = Compound stability (authors' observation); assay type: physicochemical; conditions: reason for discontinuation
C2C12 cells = assay: Host cell cytotoxicity (C2C12 viability); assay type: cell-based, Mouse; conditions: 10 µM; < 50% viability considered cytotoxic
Procedure: as §2

[5] = mean of two experiments in triplicate (n = 6) ± SEM, read-out: IC50 hCatL
[6] = mean of two experiments in triplicate (n = 6) ± SEM, read-out: IC50 Cz
[7] = C2C12 myoblast cells infected with trypomastigotes
[8] = Trypanosoma cruzi, 10 µM, C2C12 infected cells, read-out: Anti-Tc CAI/72 activity (%)
[9] = no DRC performed, bound from the screen at 10 µM, read-out: IC50 hCatL
[10] = Trypanosoma cruzi, C2C12, read-out: Anti-Tc CAI/72 activity (%)
[11] = each of two biological replicates in triplicate, read-out: IC50 hCatL, single biological replicate (Figure 4)
[12] = IC50 Cz, single biological replicate (Figure 3), each of two biological replicates in triplicate
[13] = Trypanosoma cruzi, C2C12, 48 h, read-out: EC50 Tc CAI/72, intracellular amastigotes in C2C12 cells, 48 h
[14] = read-out: EC50 Tc CAI/72, intracellular amastigotes in C2C12 cells, 48 h
[15] = 10 µM, C2C12 infected cells, read-out: Anti-Tc CAI/72 activity (%)

Compound	inhibition at 10 µM [2] [%]	IC50 [2, 5] [nM]	IC50 (recombinant Cz (cruzain); [6]) [nM]	SICz (recombinant Cz (cruzain))	inhibition at 10 µM (recombinant Cz (cruzain)) [%]	inhibition at 10 µM (T. cruzi CAI/72 strain; [8]) [%]	viability at 48 h, 10 µM [3] [%]	Cz inhibition (%) (recombinant Cz (cruzain))	also measured
O=C1O[C@H]([C@@H](O)CO)C(O)=C1O [ASC, ascorbic acid]	–	–	–	–	–	–	–	–	Percentage of inhibited DPPH (2 h) ([1]; 0,03 mg/ml): 80,33 ± 0,33%; Percentage of inhibited DPPH (2 h) ([1]; 0,06 mg/ml): 80,33 ± 0,67%; time to reach the plateau of the DPPH kinetic curve ([1]; 0.015 mg/mL): 0 min; Percentage of inhibited DPPH (2 h) ([1]; 0,015 mg/ml): 65,33 ± 2,03%
C/C(=N\NC(N)=S)c1cccc([N+](=O)[O-])c1 [Compound S1h, (E)-2-(1-(3-Nitrophenyl)ethylidene)hydrazine-1-carbothioamide]	94.5	190 ± 18.4	1.15 ± 0.74	164.83	100	24.8	–	–	viability at 48 h, 10 µM [3, 7]: > 100%
C/C(=N\Nc1nc(C)cs1)c1cccc([N+](=O)[O-])c1 [Compound S2h, (E)-4-Methyl-2-(2-(1-(3-nitrophenyl)ethylidene)hydrazineyl)thiazole Hydrochloride]	12.1	–	1280 ± 1120	–	96.9	28.8	–	–	IC50 [2, 9]: > 10000 nM; viability at 48 h, 10 µM [3, 7]: > 100%
C/C(=N\Nc1nc(C)cs1)c1cccc(Cl)c1 [Compound S2i, (E)-2-(2-(1-(3-Chlorophenyl)ethylidene)hydrazineyl)-4-methylthiazole]	24.7	–	142 ± 79.2	–	97.5	49.3	–	–	IC50 [2, 9]: > 10000 nM; viability at 48 h, 10 µM [3, 7]: > 100%
C/C(=N\NC(N)=[Se])c1ccc(C#N)cc1 [Se1e, (E)-2-(1-(4-Cyanophenyl)ethylidene)hydrazine-1-carboselenoamide]	–	–	–	–	104	–	> 100	–	stability of the compound [4]: stability problems; also recorded: lack of stability; inhibition at 10 µM (T. cruzi CAI/72 strain; [10]): 57.1%
C/C(=N\NC(N)=[Se])c1ccc(Br)cc1 [Se1f, (E)-2-(1-(4-Bromophenyl)ethylidene)hydrazine-1-carboselenoamide]	97.3	106 ± 14.9	14.3 ± 3.57	7.42	> 85	69.5	> 100	101.08	IC50 [2, 11]: 91.3 nM and 121 nM; IC50 (recombinant Cz (cruzain); [12]): 17.8 nM and 10.7 nM; CC50 at 48 h [3]: > 10000 nM; EC50 (T. cruzi CAI/72 strain; [13]): < 1000 nM; EC50 (T. cruzi CAI/72 strain; [14]): 770 ± 170 nM
C/C(=N\NC(N)=[Se])c1cccc([N+](=O)[O-])c1 [Se1h, (E)-2-(1-(3-Nitrophenyl)ethylidene)hydrazine-1-carboselenoamide]	98.7	9.32 ± 0.38	–	10.22	104	41	97.3	–	IC50 (recombinant Cz (cruzain); IC50 Cz, mean of two experiments in triplicate (n = 6) ± SEM): 0.91 ± 0.18 nM
C/C(=N\Nc1nc(C)c[se]1)c1cccc(Cl)c1.Cl [Se2i, (E)-2-(2-(1-(3-Chlorophenyl)ethylidene)hydrazineyl)-4-methyl-1,3-selenazole Hydrochloride]	98	453.7 ± 4.4	81.7 ± 17.9	5.55	> 85	–	> 100	102.55	IC50 [2, 11]: 458 nM and 449 nM; IC50 (recombinant Cz (cruzain); [12]): 63.8 nM and 99.5 nM; CC50 at 48 h [3]: > 10000 nM; EC50 (T. cruzi CAI/72 strain; [13]): < 1000 nM; inhibition at 10 µM (T. cruzi CAI/72 strain; [10]): 65%; EC50 (T. cruzi CAI/72 strain; [14]): 530 ± 570 nM
Cc1c(C)c2c(c(C)c1O)CCC(C)(C(=O)O)O2 (centres unmarked) [TRO, trolox]	–	–	–	–	–	–	–	–	Percentage of inhibited DPPH (2 h) ([1]; 0,03 mg/ml): 79,33 ± 0,88%; Percentage of inhibited DPPH (2 h) ([1]; 0,06 mg/ml): 79,67 ± 0,67%; time to reach the plateau of the DPPH kinetic curve ([1]; 0.015 mg/mL): 5 min; percentage of activity in the DPPH kinetic curve ([1]; 0.015 mg/mL, kinetic curve over 2 h): 80%; Percentage of inhibited DPPH (2 h) ([1]; 0,015 mg/ml): 79,33 ± 1,33%
(E)-2-(1-(4-Cyanophenyl)ethylidene)hydrazine-1-carbothioamide [Compound S1e]	–	–	–	–	–	–	–	98.77	C2C12 viability (%) (C2C12 cells): >100%; inhibition (T. cruzi CAI/72 strain; [15]): 31.6%
(E)-2-(1-((3r,5r,7r)-Adamantan-1-yl)ethylidene)hydrazine-1-carbothioamide [Compound S1q]	–	–	–	–	–	–	–	5.06	C2C12 viability (%) (C2C12 cells): >100%; inhibition (T. cruzi CAI/72 strain; [15]): 38.7%
(E)-2-(1-(Thiophen-3-yl)ethylidene)hydrazine-1-carbothioamide [Compound S1l]	–	–	–	–	–	–	–	62.83	C2C12 viability (%) (C2C12 cells): >100%; inhibition (T. cruzi CAI/72 strain; [15]): 10.9%
